# Data reported in patent US20180303810A1, “Nimodipine Water-Soluble Derivative, And Preparation Method And Use Thereof” (Guangzhou Henovcom Bioscience Co., Ltd., priority 2015, published 2018).
# Read-outs that look alike come from different tables or passages of the source.
# Legend:
# Solubility in water = format: physicochemical; conditions: pure water, thermodynamic from solid
# Protocol: The compound sample prepared according to the above examples was accurately weighed in an appropriate amount, and pure water was added dropwise with a microsyringe while shaking until the solution became clear. The amounts of the sample and pure water were recorded and converted into mg/mL, as the solubility of the sample. The result was shown in the following table, and the original drug, i.e. Nimodipine, was used as a control.
# [1] = Release rate into plasma (conversion into Nimodipine); format: in vitro ADME; conditions: rat, rat anticoagulated plasma, 37° C., HPLC
# Protocol: A portion of compound 6 was throughly mixed with rat anticoagulated plasma and incubated at 37° C. The drug was extracted with acetonitrile at different time points for HPLC analysis.
# The compound sample prepared according to the above examples was dissolved in brine in an appropriate amount to formulate into a stock solution between 0.3 and 0.4 mg/mL. 20 μL of stock solution was added into the rat anticoagulated plasma previously incubated at 37° C. for 2 mins, which were throughly mixed, and incubated at 37° C. 100 μL of samples were taken at different time points, and an equal amount of acetonitrile was added to precipitate proteins, then centrifugated and the supernatant was sampled for HPLC analysis.
# [2] = water at room temperature, read-out: solubility in water
# [3] = read-out: half-life for converting compound into Nimodipine in blood (converted)
# [4] = read-out: release rate into plasma t1/2
smiles,measurement,setting,value
COCCOC(=O)C1=C(C)N(C(=O)OCOP(=O)(O)O)C(C)=C(C(=O)OC(C)C)C1c1cccc([N+](=O)[O-])c1 (centres unmarked) [Compound 8],solubility,Solubility in water; read-out: solubility,> 50 mg/mL
same,solubility,Solubility in water; [2],105 mg/mL
same,half-life,[1]; [3],~1.5 h
same,half-life,[1]; [4],< 1.5 h
COCCOC(=O)C1=C(C)N(C(=O)OCOC(=O)/C=C/C(=O)[O-])C(C)=C(C(=O)OC(C)C)C1c1cccc([N+](=O)[O-])c1.[Na+] (centres unmarked) [Compound 39],solubility,Solubility in water; read-out: solubility,> 50 mg/mL
same,half-life,[1]; [4],< 1 h
COCCOC(=O)C1=C(C)N(C(=O)OCOC(=O)[C@@H](N)CCCCN)C(C)=C(C(=O)OC(C)C)C1c1cccc([N+](=O)[O-])c1 (some centres unmarked) [Compound 9],solubility,Solubility in water; read-out: solubility,> 50 mg/mL
same,solubility,Solubility in water; [2],230 mg/mL
same,half-life,[1]; [3],~2.5 h
same,half-life,[1]; [4],~2.5 h
COCCOC(=O)C1=C(C)N(C(=O)OC(C)OC(=O)CCCN)C(C)=C(C(=O)OC(C)C)C1c1cccc([N+](=O)[O-])c1.Cl (centres unmarked) [Compound 28],solubility,Solubility in water; read-out: solubility,> 50 mg/mL
same,half-life,[1]; [4],< 0.5 h
COCCOC(=O)C1=C(C)N(C(=O)OCOC(=O)CCCN)C(C)=C(C(=O)OC(C)C)C1c1cccc([N+](=O)[O-])c1.Cl (centres unmarked) [Compound 30],solubility,Solubility in water; read-out: solubility,> 50 mg/mL
same,half-life,[1]; [4],< 0.5 h
COCCOC(=O)C1=C(C)N(C(=O)OC(C)OC(=O)/C=C/C(=O)[O-])C(C)=C(C(=O)OC(C)C)C1c1cccc([N+](=O)[O-])c1.[K+] (centres unmarked) [Compound 24],solubility,Solubility in water; read-out: solubility,> 50 mg/mL
same,half-life,[1]; [4],< 1 h
COCCOC(=O)C1=C(C)NC(C)=C(C(=O)OC(C)C)C1c1cccc([N+](=O)[O-])c1 (centres unmarked) [Nimodipine],solubility,Solubility in water; read-out: solubility,0.003 mg/mL
COCCOC(=O)C1=C(C)N(C(=O)OCOC(=O)/C=C/C(=O)O)C(C)=C(C(=O)OC(C)C)C1c1cccc([N+](=O)[O-])c1 (centres unmarked) [Compound 6],solubility,Solubility in water; read-out: solubility,> 50 mg/mL
same,solubility,Solubility in water; [2],120 mg/mL
same,half-life,[1]; [3],~1.5 h
same,half-life,[1]; [4],~1.5 h
COCCOC(=O)C1=C(C)N(C(=O)OCOC(=O)CCN)C(C)=C(C(=O)OC(C)C)C1c1cccc([N+](=O)[O-])c1.Cl (centres unmarked) [Compound 26],solubility,Solubility in water; read-out: solubility,> 50 mg/mL
same,half-life,[1]; [4],< 0.5 h
COCCOC(=O)C1=C(C)N(C(=O)OCOC(=O)C2CCNCC2)C(C)=C(C(=O)OC(C)C)C1c1cccc([N+](=O)[O-])c1.Cl (centres unmarked) [Compound 32],solubility,Solubility in water; read-out: solubility,> 50 mg/mL
same,half-life,[1]; [4],< 0.5 h
COCCOC(=O)C1=C(C)N(C(=O)OCOC(=O)CC2CCNCC2)C(C)=C(C(=O)OC(C)C)C1c1cccc([N+](=O)[O-])c1.Cl (centres unmarked) [Compound 38],solubility,Solubility in water; read-out: solubility,> 50 mg/mL
same,half-life,[1]; [4],< 0.5 h
COCCOC(=O)C1=C(C)N(COP(=O)(O)O)C(C)=C(C(=O)OC(C)C)C1c1cccc([N+](=O)[O-])c1 (centres unmarked) [Compound 12],solubility,Solubility in water; read-out: solubility,> 50 mg/mL
same,solubility,Solubility in water; [2],80 mg/mL
same,half-life,[1]; [3],< 0.5 h
same,half-life,[1]; [4],< 0.5 h
COCCOC(=O)C1=C(C)N(C(=O)OCOC(=O)[C@@H](N)CC(C)C)C(C)=C(C(=O)OC(C)C)C1c1cccc([N+](=O)[O-])c1.Cl (some centres unmarked) [Compound 20],solubility,Solubility in water; read-out: solubility,> 50 mg/mL
same,half-life,[1]; [4],< 0.5 h
COCCOC(=O)C1=C(C)N(C(=O)OCOC(=O)[C@H](C)N)C(C)=C(C(=O)OC(C)C)C1c1cccc([N+](=O)[O-])c1.Cl (some centres unmarked) [Compound 18],solubility,Solubility in water; read-out: solubility,> 50 mg/mL
same,half-life,[1]; [4],< 0.5 h
COCCOC(=O)C1=C(C)N(C(=O)OC(C)OC(=O)[C@H](C)N)C(C)=C(C(=O)OC(C)C)C1c1cccc([N+](=O)[O-])c1.Cl (some centres unmarked) [Compound 23],solubility,Solubility in water; read-out: solubility,> 50 mg/mL
same,half-life,[1]; [4],< 0.5 h
CNCC(=O)OCOC(=O)N1C(C)=C(C(=O)OCCOC)C(c2cccc([N+](=O)[O-])c2)C(C(=O)OC(C)C)=C1C.Cl (centres unmarked) [Compound 16],solubility,Solubility in water; read-out: solubility,> 50 mg/mL
same,half-life,[1]; [4],< 0.5 h
COCCOC(=O)C1=C(C)N(C(=O)OCOC(=O)CC[C@H](N)C(N)=O)C(C)=C(C(=O)OC(C)C)C1c1cccc([N+](=O)[O-])c1.Cl (some centres unmarked) [Compound 41],solubility,Solubility in water; read-out: solubility,> 50 mg/mL
same,half-life,[1]; [4],< 0.5 h
